Measurements taken from patent US11926619B2, “Certain pladienolide compounds and methods of use” (EISAI R&D MANAGEMENT CO., LTD., priority 2018, dated 2024).

What was measured:
Type in all cases: cell-based
[1] = tested on: WiDr-R cells (colon cancer cells; chemically-induced SF3B1 R1074H mutant); assay: Cell viability assay (CellTiter-Glo, 72 hr), resistant WiDr-R cells (counter-screen); conditions: WiDr-R cells (SF3B1 R1074H mutation, resistant); read-out: WiDr-R GI50
Description: (§1) Cells (WiDr and Panc05.04 obtained from ATCC) were seeded in 96-well plates, with 2000 cells/100 μL/well, and incubated overnight. Spent media was removed, and fresh media containing 9 different concentrations of compound (100 μL/well) were added, with DMSO concentration from compound stock solution adjusted to be 0.1%. Each compound treatment was done in duplicate or triplicate at each concentration.
(§2) Another plate with cells seeded was dedicated as a time zero (Tz) plate, to which was added 0.1% DMSO in media (100 μL/well) followed by CellTiter-Glo® reagent (Promega Corporation, Madison, Wisconsin) (50 μL/well) for ATP measurement as a surrogate of cell viability. Average value from measurement of multiple wells of this plate is used as Tz. Compound-treated plates were incubated for 72 hr at 37° C. Then, CellTiter-Glo® reagent (50 μL/well) was added and ATP was measured. Average value from measurement of the duplicate or triplicate compound-treated wells is used as Ti, and seeded plates with medium having 0.1% DMSO without compound is used as control growth (C).
(§3) Percentage growth inhibition/Percentage viability was calculated as:
(§4) [(Ti−Tz)/(C−Tz)]×100 for concentrations for which Ti>/=Tz
(§5) [(Ti−Tz)/Tz]×100 for concentrations for which Ti<Tz.
(§6) *time zero (Tz), control growth (C), and test growth in the presence of compound (Ti) Percentage growth inhibition/Percentage viability are plotted versus compound concentration to determine Emax.
(§7) Emax refers to the maximum achievable response to a compound in a tested dose range, with a negative value indicating cellular lethality. A larger negative Emax value indicates greater cellular lethality for a particular compound.
The counter-screening of compounds in this viability assay with a “resistant” WiDr-R cell line may indicate whether these compounds have off-target effect(s).

[2] = tested on: WiDr cells (colon cancer cells; wildtype SF3B1); assay: Cell viability assay (CellTiter-Glo, 72 hr), WiDr cells; conditions: Homo sapiens; WiDr cells (wildtype SF3B1); read-out: WiDr GI50
Description: as §1, §2, §3, §4, §5, §6
Emax refers to the maximum achievable response to a compound in a tested dose range, with a negative value indicating cellular lethality. A larger negative Emax value indicates greater cellular lethality for a particular compound. […]

[3] = tested on: Panc 05.04 cells (pancreatic cancer cells; Q699H and K700E mutations in SF3B1); assay: Cell viability assay (CellTiter-Glo, 72 hr), Panc 05.04 cells; conditions: Panc 05.04 cells (mutant SF3B1); for Emax: maximum achievable response in tested dose range, negative value = cellular lethality, read-out: Panc 05.04 (mt SF3B1 cells) Emax (%); for GI50: read-out: Panc 05.04 (mt SF3B1 cells), GI50
Description: as §1, §2, §3, §4, §5, §6, §7

Compound	GI50 [1] [nM]	GI50 [2] [nM]	Emax [3] [%]	GI50 [3] [nM]
C/C(=C\C=C\[C@@H](C)COC(=O)N1CC2CC2C1)[C@H]1OC(=O)C[C@H](O)CC[C@@](C)(O)[C@@H](OC(=O)N2CCN(C3CCCCCC3)CC2)/C=C/[C@@H]1C (stereo partly drawn)	> 1000	8.28	-84.2	18.6
C/C(=C\C=C\[C@@H](C)COC(=O)N1CCCC1)[C@H]1OC(=O)C[C@H](OC(=O)N2CCCC2)CC[C@@](C)(O)[C@@H](OC(=O)N2CCN(C3CCCCCC3)CC2)/C=C/[C@@H]1C	> 1000	77.3	–	80.1
C/C(=C\C=C\[C@@H](C)c1ccccn1)[C@H]1OC(=O)CCCC[C@@](C)(O)[C@@H](OC(=O)N2CCN(C)CC2)/C=C/[C@@H]1C	> 1000	31.6	-75.7	33.9
C/C(=C\C=C\[C@@H](C)CO)[C@H]1OC(=O)C[C@H](O)CC[C@@](C)(O)[C@@H](OC(=O)N2CCN(C)CC2)/C=C/[C@@H]1C	> 10000	1150	35.1	1390
C/C(=C\C=C\C(C)c1ccnc(N2CCCC2)n1)[C@H]1OC(=O)C[C@H](O)CC[C@@](C)(O)[C@@H](OC(=O)N2CCN(C3CCCCCC3)CC2)/C=C/[C@@H]1C (stereo partly drawn)	4310	23	-96.6	147
C/C(=C\C=C\[C@@H](C)COC(=O)N1CCC[C@H]1CO)[C@H]1OC(=O)C[C@H](O)CC[C@H](C)[C@@H](OC(=O)N2CCN(C)CC2)/C=C/[C@@H]1C	> 1000	2.66	-79	4.36
C/C(=C\C=C\C(C)c1ncccn1)[C@H]1OC(=O)CCCCC[C@@H](OC(=O)N2CCN(C)CC2)/C=C/[C@@H]1C (stereo partly drawn)	> 1000	45.7	-72.6	40.4
CC(=O)O[C@H]1/C=C/[C@H](C)[C@@H](/C(C)=C/C=C/[C@@H](C)COC(N)=O)OC(=O)C[C@H](O)CC[C@@]1(C)O	> 10000	8130	40.1	2090
C/C(=C\C=C\[C@@H](C)COC(=O)N1CCC2(COC2)C1)[C@H]1OC(=O)C[C@H](O)CC[C@@](C)(O)[C@@H](OC(=O)N2CCN(C3CCCCCC3)CC2)/C=C/[C@@H]1C	603	6.39	-76.4	7.98
C/C(=C\C=C\[C@@H](C)COC(=O)N1CCCC1)[C@H]1OC(=O)C[C@H](O)CC[C@H](C)[C@@H](OC(=O)N2CCN(C3CCCCCC3)CC2)/C=C/[C@@H]1C	> 1000	8.39	-90.9	10.8
C/C(=C\C=C\[C@@H](C)COC(=O)N1[C@H](C)CC[C@H]1C)[C@H]1OC(=O)C[C@H](O)CC[C@@](C)(O)[C@@H](OC(=O)N2CCN(C3CCCCCC3)CC2)/C=C/[C@@H]1C	14.8	2.39	-68.9	4.52
C/C(=C\C=C\C(C)(C)COC(=O)N1CCCC1)[C@H]1OC(=O)C[C@H](OC(=O)N2CCCC2)CC[C@@](C)(O)[C@@H](OC(=O)N2CCN(C3CCCCCC3)CC2)/C=C/[C@@H]1C	1880	41.4	-92.4	86.3
C/C(=C\C=C\[C@@H](C)COC(=O)N1CCC[C@H]1CF)[C@H]1OC(=O)C[C@H](O)CC[C@@](C)(O)[C@@H](OC(=O)N2CCN(C)CC2)/C=C/[C@@H]1C	> 1000	1.7	-82.1	2.25
C/C(=C\C=C\[C@@H](C)COC(=O)N1CC[C@@H](F)C1)[C@H]1OC(=O)C[C@H](O)CC[C@@](C)(O)[C@@H](OC(=O)N2CCN(C3CCCCCC3)CC2)/C=C/[C@@H]1C	> 1000	7.64	-92.2	22.5
C/C(=C\C=C\[C@@H](C)COC(=O)N1CCCC1(C)C)[C@H]1OC(=O)C[C@H](O)CC[C@@](C)(O)[C@@H](OC(=O)N2CCN(C3CCCCCC3)CC2)/C=C/[C@@H]1C	> 1000	28.9	-93	10.4
C/C(=C\C=C\C(C)c1ccnc(N(C)C)n1)[C@H]1OC(=O)CCCCC[C@@H](OC(=O)N2CCN(C3CCCCCC3)CC2)/C=C/[C@@H]1C (stereo partly drawn)	> 10000	4280	52	> 10000
CC(=O)O[C@H]1/C=C/[C@H](C)[C@@H](/C(C)=C/C=C/C(C)c2ccccc2)OC(=O)C[C@H](O)CC[C@@]1(C)O (stereo partly drawn)	> 10000	382	12.3	932

Compound	GI50 [1] [nM]	GI50 [2] [nM]	Emax [3] [%]	GI50 [3] [nM]
C/C(=C\C=C\C(C)c1ccnc(N(C)C)n1)[C@H]1OC(=O)C[C@H](O)CC[C@@](C)(O)[C@@H](OC(=O)N2CCN(C)CC2)/C=C/[C@@H]1C (stereo partly drawn)	> 1000	252	6.97	1290
CC(=O)O[C@H]1/C=C/[C@H](C)[C@@H](/C(C)=C/C=C/C(C)c2cccc(OCC(C)C)n2)OC(=O)C[C@H](O)CC[C@@]1(C)O (stereo partly drawn)	> 10000	440	-27.1	842
C/C(=C\C=C\C(C)c1ccnc(N2CCCC2)n1)[C@H]1OC(=O)CCCCC[C@@H](OC(=O)N2CCN(C3CCCCCC3)CC2)/C=C/[C@@H]1C (stereo partly drawn)	4080	810	52	> 10000
CC[C@H](O)[C@@H](C)C(=O)OC[C@H](C)/C=C/C=C(\C)[C@H]1OC(=O)C[C@H](O)CC[C@@](C)(O)[C@@H](OC(C)=O)/C=C/[C@@H]1C	> 10000	42.8	-90.5	31.1
C/C(=C\C=C\[C@@H](C)COC(=O)N1CCC(=O)C1)[C@H]1OC(=O)C[C@H](O)CC[C@@](C)(O)[C@@H](OC(=O)N2CCN(C3CCCCCC3)CC2)/C=C/[C@@H]1C	449	4.77	-93.6	2.85
CCCCN(C)C(=O)OC[C@H](C)/C=C/C=C(\C)[C@H]1OC(=O)C[C@H](O)CC[C@@](C)(O)[C@@H](OC(C)=O)/C=C/[C@@H]1C	> 10000	86.5	–	198
C/C(=C\C=C\[C@@H](C)COC(=O)N1CCC[C@H]1C(N)=O)[C@H]1OC(=O)C[C@H](O)CC[C@@](C)(O)[C@@H](OC(=O)N2CCN(C3CCCCCC3)CC2)/C=C/[C@@H]1C	> 1000	32.8	-92.9	40.2
CC(=O)O[C@H]1/C=C/[C@H](C)[C@@H](/C(C)=C/C=C/C(C)(O)CCc2ccccc2)OC(=O)C[C@H](O)CC[C@@]1(C)O (stereo partly drawn)	> 10000	194	-41.5	354
C/C(=C\C=C\[C@@H](C)COC(=O)N1CCCC1)[C@H]1OC(=O)C[C@@H](O)CC[C@@](C)(O)[C@@H](OC(=O)N2CCN(C)CC2)/C=C/[C@@H]1C	> 1000	25	-95.4	12.3
C/C(=C\C=C\[C@@H](C)c1ccccn1)[C@H]1OC(=O)CCCCC[C@@H](OC(=O)N2CCN(C3CCCCCC3)CC2)/C=C/[C@@H]1C	3820	258	-40.6	883
C/C(=C\C=C\Cc1ccccn1)[C@H]1OC(=O)C[C@H](O)CC[C@@](C)(O)[C@@H](OC(=O)N2CCN(C3CCCCCC3)CC2)/C=C/[C@@H]1C	> 1000	148	63.5	> 4000
C/C(=C\C=C\[C@@H](C)COC(=O)N1CC[C@@H](C)C1)[C@H]1OC(=O)C[C@H](O)CC[C@@](C)(O)[C@@H](OC(=O)N2CCN(C3CCCCCC3)CC2)/C=C/[C@@H]1C	> 1000	3.93	-86.6	1.2
CC(=O)O[C@H]1/C=C/[C@H](C)[C@@H](/C(C)=C/C=C/Cc2ccncc2)OC(=O)C[C@H](O)CC[C@@]1(C)O	> 10000	610	76.5	> 6400
CC(=O)O[C@H]1/C=C/[C@H](C)[C@@H](/C(C)=C/C=C/[C@@H](C)COC(=O)N2CCSC2)OC(=O)C[C@H](O)CC[C@@]1(C)O	> 1000	62.9	–	68
CC(=O)O[C@H]1/C=C/[C@H](C)[C@@H](/C(C)=C/C=C/C(C)c2cccc([C@H](C)CO)n2)OC(=O)C[C@H](O)CC[C@@]1(C)O (stereo partly drawn)	> 10000	343	-28.2	408
C/C(=C\C=C\[C@@H](C)COC(=O)N1CCC[C@H]1CF)[C@H]1OC(=O)C[C@H](O)CC[C@H](C)[C@@H](OC(=O)N2CCN(C)CC2)/C=C/[C@@H]1C	> 1000	2.2	-79.1	0.339
